Reference: US20070004660A1, “Synergistic Modulation of Flt3 Kinase Using Alkylquinolines and Alkylquinazolines” (priority 2005, published 2007)

The molecules below were run against T1, wild-type FLT3 receptor (Homo sapiens, UniProt P36888) (assay: Cell-based FLT3 receptor ELISA (FLT ligand-induced phosphorylation in Baf3 FLT3 cells)). Conditions: 100 ng/mL Flt ligand, uncertainty ±20%.
T1 construct: host or cells: Baf3 (murine B cell lymphoma line), stably transfected
T1 sequence (P36888 27-993): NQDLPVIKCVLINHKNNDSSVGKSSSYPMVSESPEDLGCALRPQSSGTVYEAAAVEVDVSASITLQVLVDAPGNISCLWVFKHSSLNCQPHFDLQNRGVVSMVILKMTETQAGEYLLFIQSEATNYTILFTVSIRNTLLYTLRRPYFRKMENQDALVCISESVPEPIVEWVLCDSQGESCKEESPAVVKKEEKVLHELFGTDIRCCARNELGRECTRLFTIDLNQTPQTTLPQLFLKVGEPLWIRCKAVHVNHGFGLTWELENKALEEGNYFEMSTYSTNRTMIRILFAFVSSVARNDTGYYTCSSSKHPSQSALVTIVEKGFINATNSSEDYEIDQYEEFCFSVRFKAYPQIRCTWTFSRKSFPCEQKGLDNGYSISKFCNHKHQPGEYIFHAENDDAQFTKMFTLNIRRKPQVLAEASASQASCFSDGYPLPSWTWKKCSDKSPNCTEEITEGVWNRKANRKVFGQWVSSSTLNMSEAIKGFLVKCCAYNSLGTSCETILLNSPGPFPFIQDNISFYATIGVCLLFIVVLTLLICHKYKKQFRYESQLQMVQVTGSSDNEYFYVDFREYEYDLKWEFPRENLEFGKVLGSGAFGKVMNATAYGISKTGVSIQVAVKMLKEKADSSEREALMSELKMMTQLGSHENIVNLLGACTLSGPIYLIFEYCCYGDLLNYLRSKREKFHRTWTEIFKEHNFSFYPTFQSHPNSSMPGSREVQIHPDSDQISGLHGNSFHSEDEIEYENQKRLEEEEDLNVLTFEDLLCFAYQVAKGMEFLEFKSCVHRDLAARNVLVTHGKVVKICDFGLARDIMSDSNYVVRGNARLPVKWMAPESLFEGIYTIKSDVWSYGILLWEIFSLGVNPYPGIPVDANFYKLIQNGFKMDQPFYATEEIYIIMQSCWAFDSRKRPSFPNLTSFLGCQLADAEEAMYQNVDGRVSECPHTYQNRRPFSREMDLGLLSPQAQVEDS
Method in brief: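 Receptor phosphotyrosine measured by sandwich ELISA (anti-FLT3 capture, HRP anti-pTyr, luminescence) in FLT3-transfected murine Baf3 cells given 1 h compound pretreatment and 10 min 100 ng/mL FLT ligand after overnight low-serum starvation; triplicates, IC50 from nonlinear regression.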
`CC(C)c1ccc(NC(=O)N2CCC(c3ncnc4ccccc34)CC2)cc1` [Example 7, 4-Quinazolin-4-yl-piperidine-1-carboxylic acid (4-isopropyl-phenyl)-amide] gave an IC50 of 367 nM. `O=C1CCCN1CCCOc1ccc2c(C3CCN(C(=O)Nc4ccc(N5CCOCC5)nc4)CC3)ncnc2c1` [Example 72, 4-{7-[3-(2-Oxo-pyrrolidin-1-yl)-propoxy]-quinazolin-4-yl}-piperidine-1-carboxylic acid (6-morpholin-4-yl-pyridin-3-yl)-amide] showed an IC50 of 28 nM. `CN1CCN(CCCOc2ccc3c(C4CCN(C(=O)Nc5ccc(N6CCCC6)nc5)CC4)ncnc3c2)CC1` [Example 104, 4-{7-[3-(4-Methyl-piperazin-1-yl)-propoxy]-quinazolin-4-yl}-piperidine-1-carboxylic acid (6-pyrrolidin-1-yl-pyridin-3-yl)-amide] showed an IC50 of 16 nM. For `COc1cc2ncnc(C3CCN(C(=O)Nc4ccc(Oc5ccccc5)cc4)CC3)c2cc1OC` [Example 47, 4-(6,7-Dimethoxy-quinazolin-4-yl)-piperidine-1-carboxylic acid (4-phenoxy-phenyl)-amide], the IC50 was 8 nM. `CC(C)Oc1ccc(NC(=O)N2CCC(c3ncnc4ccc(C#CCO)cc34)CC2)cc1` [Example 12, 4-[6-(3-Hydroxy-prop-1-ynyl)-quinazolin-4-yl]-piperidine-1-carboxylic acid (4-isopropoxy-phenyl)-amide] gave an IC50 of 36 nM. Work on `CC(C)Oc1ccc(NC(=O)N2CCC(c3ncnc4cc(N5CCN(C)CC5)ccc34)CC2)cc1` [Example 103, 4-[7-(4-Methyl-piperazin-1-yl)-quinazolin-4-yl]-piperidine-1-carboxylic acid (4-isopropoxy-phenyl)-amide] yielded an IC50 of 13 nM. For `COc1cc2ncnc(C3CCN(C(=O)Nc4ccc(OC(F)F)cc4)CC3)c2cc1OC` [Example 51, 4-(6,7-Dimethoxy-quinazolin-4-yl)-piperidine-1-carboxylic acid (4-difluoromethoxy-phenyl)-amide], the IC50 was 542 nM. `CC(C)Oc1ccc(NC(=O)N2CCC(c3ncnc4ccc(OCCCN5CCN(C)CC5)cc34)CC2)cc1` [Example 76, 4-{6-[3-(4-Methyl-piperazin-1-yl)-propoxy]-quinazolin-4-yl}-piperidine-1-carboxylic acid (4-isopropoxy-phenyl)-amide] gave an IC50 of 96 nM. For `COc1cc2ncnc(C3CCN(C(=O)Nc4ccc(OC(C)C)nc4)CC3)c2cc1OC` [Example 56, 4-(6,7-Dimethoxy-quinazolin-4-yl)-piperidine-1-carboxylic acid (6-isopropoxy-pyridin-3-yl)-amide], the IC50 was 10 nM. In the case of `COc1cc2ncnc(C3CCN(C(=O)Nc4ccc(C(C)(C)C)cc4)CC3)c2cc1OC` [Example 53, 4-(6,7-Dimethoxy-quinazolin-4-yl)-piperidine-1-carboxylic acid (4-tert-butyl-phenyl)-amide], the IC50 is reported as 5 nM. Molecule `CN(C)C(=O)N1CCN(CCCOc2ccc3c(C4CCN(C(=O)Nc5ccc(N6CCOCC6)cc5)CC4)ncnc3c2)CC1` [Example 120, 4-(3-{4-[1-(4-Morpholin-4-yl-phenylcarbamoyl)-piperidin-4-yl]-quinazolin-7-yloxy}-propyl)-piperazine-1-carboxylic acid dimethylamide] has an IC50 of 23 nM. With `CN1CCC(COc2ccc3c(C4CCN(C(=O)Nc5ccc(N6CCOCC6)nc5)CC4)ncnc3c2)CC1` [Example 108, 4-[7-(1-Methyl-piperidin-4-ylmethoxy)-quinazolin-4-yl]-piperidine-1-carboxylic acid (6-morpholin-4-yl-pyridin-3-yl)-amide] the IC50 was 53 nM. For `O=C(Nc1ccc(N2CCOCC2)cc1)N1CCC(c2ncnc3cc(OCCCN4CCC[C@H]4CO)ccc23)CC1` [Example 119, (S)-4-{7-[3-(2-Hydroxymethyl-pyrrolidin-1-yl)-propoxy]-quinazolin-4-yl}-piperidine-1-carboxylic acid (4-morpholin-4-yl-phenyl)-amide], the IC50 was 37 nM. For `O=C(Nc1ccc(N2CCOCC2)cc1)N1CCC(c2ncnc3cc(OCCCO)ccc23)CC1` [Example 77, 4-[7-(3-Hydroxy-propoxy)-quinazolin-4-yl]-piperidine-1-carboxylic acid (4-morpholin-4-yl-phenyl)-amide], the IC50 was 98 nM. `CC(C)Oc1ccc(NC(=O)N2CCC(c3ncnc4ccc(I)cc34)CC2)cc1` [Example 11, 4-(6-Iodo-quinazolin-4-yl)-piperidine-1-carboxylic acid (4-isopropoxy-phenyl)-amide] was tested, and the IC50 was 1400 nM. Work on `O=C1CCCN1CCCOc1ccc2c(C3CCN(C(=O)Nc4ccc(N5CCCC5)nc4)CC3)ncnc2c1` [Example 89, 4-{7-[3-(2-Oxo-pyrrolidin-1-yl)-propoxy]-quinazolin-4-yl}-piperidine-1-carboxylic acid (6-pyrrolidin-1-yl-pyridin-3-yl)-amide] yielded an IC50 of 1 nM. Work on `CN1CCN(CCCOc2ccc3c(C4CCN(C(=O)Nc5cnc(N6CCCC6)nc5)CC4)ncnc3c2)CC1` [Example 105, 4-{7-[3-(4-Methyl-piperazin-1-yl)-propoxy]-quinazolin-4-yl}-piperidine-1-carboxylic acid (2-pyrrolidin-1-yl-pyrimidin-5-yl)-amide] yielded an IC50 of 98 nM. Molecule `COc1cc2ncnc(C3CCN(CC(=O)Nc4ccc(OC(C)C)cc4)CC3)c2cc1OC` [Example 10, 2-[4-(6,7-Dimethoxy-quinazolin-4-yl)-piperidin-1-yl]-N-(4-isopropoxy-phenyl)-acetamide] has an IC50 of 31 nM.
